Measurements as given in paper PMC10536132, “Arginine Gemini-Based Surfactants for Antimicrobial and Antibiofilm Applications: Molecular Interactions, Skin-Related Anti-Enzymatic Activity and Cytotoxicity” (Molecules, 2023).
Marks after values point to notes of the source that are not given here.

Experiments:
[1] = design: method as in doi:10.1021/la981295l; details: cited from earlier work
[2] = system: methicillin-resistant Staphylococcus aureus (MRSA) ATCC 43300 biofilm; assay: Biofilm eradication, crystal violet; type: cell-based; details: at 32 μg/mL
Procedure: (§1) The ability of these geminis to disperse and eradicate biofilms once formed on the propylene surfaces of the microtiter plates was evaluated using the same bacterial strains. […] The susceptibility of both biofilms against the tested surfactants was similar. At a low concentration of 32 μg/mL, C3(CA)2 and C3(LA)2 were able to eradicate around 60–70% of preformed biofilm; however, at this concentration, the […] hydrophobic compound, C3(OA)2, eradicated less than 30% of biofilm. At high concentrations, the eradication percentage is similar for all alkyl chains. […] In this case, at low concentrations, there is not a clear dependence between the antibiofilm properties and the spacer; however, at a high concentration, the best effectivity was obtained for the longer spacer chains.
(§2) Antibiofilm activity was assessed against biofilm-producing strains of methicillin-resistant Staphylococcus aureus (MRSA) ATCC 43300 and Pseudomonas aeruginosa PAO1. Biofilm inhibition and eradication capacities of the gemini surfactants were evaluated against adherent bacterial biofilms grown in 96-well microtiter plates. Bacteria were grown overnight in tryptic soy agar at 37 °C for 24 h. The bacteria were suspended in lysogeny broth with glucose (1%) at 1.5 × 10^8 CFU/mL.
(§3) Biofilm eradication procedure: For mature biofilm formation, 200 μL of the diluted bacterial suspension was added to each well in a 96-well microplate and incubated at 37 °C for 24 h. The wells were gently rinsed with phosphate-buffered saline (PBS) and 200 μL of the corresponding gemini surfactant solution was added to each well and incubated again at 37 °C for 24 h. Two-fold serial dilutions of the gemini surfactant were used (4–128 μg/mL). After the plates were air dried, the biofilms were stained with 50 μL of 0.1 of % crystal violet for 25 min. The plates were rinsed with water and then 150 μL of 96% ethanol containing 10% acetic acid was added to all 96-well plates to dissolve the remaining crystal violet-stained biofilm. The absorbance value was recorded at 570 nm. Each assay was conducted at least three times and the results were averaged.

[3] = system: Pseudomonas aeruginosa PAO1 biofilm; assay: Biofilm eradication, crystal violet; type: cell-based; details: P. aeruginosa PAO1, at 32 μg/mL
Procedure: as §1, §2, §3

[4] = design: method as in doi:10.1021/la981295l; details: cited from earlier work; remark: listed apart in the source
[5] = Water solubility (qualitative); type: physicochemical; details: qualitative statement
Description: In all cases, the pKap values are smaller than those described by Fitch, as well as those cited in many biochemistry textbooks. The presence of fatty chains in arginine surfactants induces the formation of aggregates in which the positive charges are close to each other. As a result, the repulsion between these charges induces the release of protons, thus increasing the acid character of the compound. The cmc is mainly governed by the hydrophobic content of the molecules. For the same spacer chain, the cmc drastically decreases as the alkyl chain increases. For the same alkyl chain of 12 carbon atoms, the cmc slightly diminishes as the number of the methylene groups in the spacer increases. Unconventional aggregation behavior and two cmcs were inferred from different techniques. The first cmcs, inferred primarily from tension data, are between 0.002 and 0.005 mM. Fluorescence and conductivity experiments indicated a second cmc at concentrations two orders of magnitude higher than that from surface tension (0.3–0.6 mM). The low cmc obtained by surface tension measurements was ascribed to non-globular aggregates with small aggregation numbers larger than two or three, given the nearly constant surface tension above these cmc. The surface tension values at the first cmc were in the same order for all gemini surfactants. […]

[6] = system: Gram-positive and Gram-negative bacteria; assay: Minimum inhibitory concentration (MIC), broth microdilution; type: cell-based; details: planktonic bacteria, 24 h at 37 °C, values only in Figure 2
Description: The Gram-positive bacteria tested include some problematic microorganisms such us L. monocytogenes; these bacteria cause listeriosis, a serious disease that has grown considerably in industrialized countries due to the increased ratio of immunosuppressed persons and the extensive use of refrigerated food. We have also tested the effectivity of these surfactants against methicillin-resistant Staphylococcus aureus (MRSA), which is known as a major cause of hospital-acquired infections and, at this time, is a remarkable public health problem. […] For comparison, this figure also includes the MIC values of a LAM (lauroyl arginine methyl ester) surfactant that can be considered the single-stranded homologue of these geminis and the BAC (benzalkonium ammonium chloride), a quaternary ammonium surfactant widely used as antiseptic.
Antimicrobial tests were carried out against the following microorganisms: Bacillus subtilis ATCC 6633, Staphylococcus epidermidis ATCC 12228, Staphylococcus aureus ATCC 29213, Listeria monocytogenes ATCC 15313, Enterococcus faecalis ATCC 29212, Escherichia coli ATCC 25922, Acinetobacter baumannii ATCC 19606, Klebsiella aerogenes ATCC 13048, methicillin-resistant Staphylococcus aureus ATCC 43300 and Pseudomonas aeruginosa PAO1. […] The growth of the microorganisms was determined visually after incubation for 24 h at 37 °C. […]

[7] = design: method as in doi:10.1021/la981295l; details: cited from earlier work; remark: listed apart in the source
[8] = system: Collagenase from Clostridium histolyticum (ChC); assay: Collagenase inhibitory activity assay (FALGPA substrate); type: biochemical; details: approximately 25 μg of sample in the reaction mixture, 15 min preincubation
Procedure: The inhibition of collagenase followed the methodology proposed by Thring et al.. First, a solution containing the surfactants at 1000 μg/mL was prepared. An aliquot of 40 μL of each sample was used in the assay. Collagenase from Clostridium histolyticum (ChC) was dissolved in tricine buffer (50 mM, pH 8.0) immediately before use at an initial concentration of 0.35 U/mL. The synthetic substrate N-[3- (2-furyl) acryloyl]-Leu-Gly-Pro-Ala (FALGPA) (40 μL) was dissolved in the kit buffer (60 μL) according to the supplier information. The samples of C3(LA)2, C6(LA)2 and C9(LA)2 were incubated with the enzyme for 15 min before the substrate addition. The final reaction mixture contained tricine buffer, 0.8 mM FALGPA, 0.1 U of ChC and approximately 25 μg of each surfactant. Ultrapure water was used as a negative control, while the positive control was EGCG solution, prepared at the same concentration of the surfactants. The absorbance at λ = 345 nm was measured immediately after the substrate incorporation and continuously during 20 min in kinetic mode using an Elx800 Microplate Reader Biotek® (Winooski, VT, USA). The collagenase inhibitory activity of each sample was determined in triplicate, according to the following equation:(1) Collagenase inhibitory activity %=A1−A2/A1×100 where A1 and A2 represent the absorbance in the absence and presence of sample, respectively.

bovine hyaluronidase = assay: Hyaluronidase inhibitory activity; type: biochemical; details: positive control
Procedure: The hyaluronidase inhibitory activity was performed according to the method used by Altinyay et al. with some modifications. Briefly, a work solution containing bovine hyaluronidase (7900 units/mL) in 0.1 M acetate buffer (pH 3.6) was prepared. Fifty microliters of the work solution were mixed 1:1 with the surfactants’ solution in 5% DMSO. For the negative control, 50 μL of 5% DMSO was used, while EGCG was used as positive control. After 20 min of incubation at 37 °C, 50 μL of calcium chloride (12.5 mM) was added to the mixture and again incubated for 20 min at 37 °C. At that point, 250 μL sodium hyaluronate (1.2 mg/mL) was added and incubated for 40 min at 37 °C. After incubation, the mixture was treated with 50 μL of 0.4 M NaOH and 100 μL of 0.2 M sodium borate and then incubated for 3 min in a boiling water bath. After cooling to room temperature, 1.4 mL of p-dimethylaminobenzaldehyde solution was added to the reaction mixture, being further incubated at 37 °C for 20 min. The resulting colored solution was measured at λ = 585 nm (PerkinElmer-Lambda 35, Brazil). The hyaluronidase inhibitory activity of each sample was calculated according to the following formula:(3) Hyaluronidase inhibitory activity %=A1−A2/A1×100 where A1 and A2 represent the absorbance in the absence and presence of the testing sample, respectively.

[9] = biological target: porcine pancreatic elastase (Sus scrofa, UniProt P00772); assay: Elastase inhibitory assay; type: biochemical; details: 40 µL of 1000 µg/mL stock; EGCG 250 μM
Sequence of porcine pancreatic elastase (P00772 27-266): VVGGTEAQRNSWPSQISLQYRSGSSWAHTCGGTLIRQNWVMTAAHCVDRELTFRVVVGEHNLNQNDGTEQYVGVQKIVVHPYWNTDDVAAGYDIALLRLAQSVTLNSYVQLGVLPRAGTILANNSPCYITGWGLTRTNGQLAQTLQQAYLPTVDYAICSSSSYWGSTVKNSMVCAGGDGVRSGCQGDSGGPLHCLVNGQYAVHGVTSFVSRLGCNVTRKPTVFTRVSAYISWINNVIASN
Procedure: The elastase inhibition was tested according to the method described by […] et al.. First, a stock solution of each surfactant at 1000 μg/mL was prepared in sterile ultrapure water. A stock solution of porcine pancreatic elastase at 3.33 mg/mL in sterile ultrapure water was also prepared. The substrate […] (Ala) 3-p-nitroanilide was dissolved in 0.2 mM Tris-HCl buffer solution (pH 8.0). The samples (40 μL) were then diluted and incubated together with the enzyme for 15 min prior to the substrate addition. Negative control was sterile ultrapure water, while EGCG (250 μM or 0.114 mg/mL) was used as the positive control. The absorbance at λ = 410 nm was measured immediately after the substrate addition and continuously during the next 2 h using an Elx800 Microplate Reader (Biotek®). […] The anti-elastase activity (in %), determined in triplicate, was calculated according to the following equation:(2) Elastase inhibitory activity %=A1-A2/A1×100 where A1 and A2 represent the absorbance in the absence and presence of the testing samples, respectively.

| SMILES | CMC (mM) Conductivity [1] | preformed biofilm eradicated [2] | preformed biofilm eradicated [3] | CMC (mM) Surface Tension [4] | γcmc ([4]; surface tension at the cmc) | water solubility [5] | antimicrobial activity (MIC), in words [6] | CMC (mM) Fluorescence [7] | anti-collagenase activity (inhibition) [8] | hyaluronidase inhibitory activity (bovine hyaluronidase) | anti-elastase activity (inhibition) [9] |
| --- | --- | --- | --- | --- | --- | --- | --- | --- | --- | --- | --- |
| CCCCCCCCCC(=O)NC(CCCNC(=N)N)C(=O)NCCCNC(=O)C(CCCNC(=N)N)NC(=O)CCCCCCCCC (centres unmarked) [C3(CA)2] | 2 * mM | 60–70% | 60–70% | 0.043 * mM | 32 * mN/m | very good water solubility | most active against all tested microorganisms | 3 * mM | – | – | – |
| O=C(O[C@@H]1Cc2c(O)cc(O)cc2O[C@@H]1c1cc(O)c(O)c(O)c1)c1cc(O)c(O)c(O)c1 [EGCG, epigalocatequin-3-galate, reference compound] | – | – | – | – | – | – | – | – | 54.2% | 13% | 67.3% |
